Measured values reported in PubChem BioAssay (NCI).
Several values for one entry are separate records, joined by “and”; a condition that tells them apart may be missing. Identical values can stand only once.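 Each compound was tested at five concentrations against cells in 96-well plates for 48 hours. Abbreviation: GI50, concentration required for 50% inhibition of growth. TGI denotes the concentration required for complete inhibition of growth.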 Where a SMILES comes first, the peptide text is derived from it. [ ]: non-standard residue; d: D form. The star is where a group is joined. Bn2Val = CC(C)[C@@H](C(=O)*)N(Cc1ccccc1)Cc1ccccc1; NH(3,4-diMeO-benzyl) = COc1ccc(CN*)cc1OC; NMeV = CN[C@H](C(=O)O)C(C)C; dNMeA = CN[C@H](C)C(=O)O

What was measured:
Test in all cases: NCI tumour cell line growth inhibition, 48 h
[1] = test system: DU-145 prostate
[2] = test system: CAKI-1 renal
[3] = test system: MALME-3M melanoma
[4] = test system: BT-549 breast
[5] = test system: MDA-MB-231 breast
[6] = test system: IGROV1 ovarian
[7] = test system: NCI-H23 lung
[8] = test system: 786-0 renal
[9] = test system: SK-OV-3 ovarian
[10] = test system: U251 CNS

Row | SMILES | GI50 [1] [µM] | TGI [1] | GI50 [2] [µM] | TGI [2] | GI50 [3] | TGI [3] | GI50 [4] [µM] | TGI [4] | GI50 [5] [µM] | TGI [5] | GI50 [6] | TGI [6] | GI50 [7] [µM] | TGI [7] | GI50 [8] | TGI [8] | GI50 [9] | TGI [9] | GI50 [10] [µM] | TGI [10]
1 | NS(=O)(=O)c1ccc(-n2nc(-c3ccc(Br)cc3)ccc2=O)cc1 | > 10 | > 10 µM | > 10 | > 10 µM | 7.71 µM | > 10 µM | > 10 | > 10 µM | > 10 | > 10 µM | > 10 µM | > 10 µM | > 10 | > 10 µM | > 10 µM | > 10 µM | > 10 µM | > 10 µM | > 10 | > 10 µM
2 | CN(C)S(=O)(=O)Nc1ccccn1 |  | > 100 µM |  | > 100 µM |  | > 100 µM |  | > 100 µM |  | > 100 µM |  | > 100 µM |  | > 100 µM |  | > 100 µM |  | > 100 µM |  | > 100 µM
3 | COc1ccc(CNC(=O)[C@@H](C)N(C)C(=O)[C@@H]2CCCN2C(=O)[C@H](C(C)C)N(C)C(=O)[C@@H](NC(=O)[C@H](C(C)C)N(Cc2ccccc2)Cc2ccccc2)C(C)C)cc1OC (Bn2Val-V[NMeV]P[dNMeA]-{NH(3,4-diMeO-benzyl)}) |  | 50 µM and 42.3 µM | 12.7 | 47 µM and 30.5 µM | 14.8 µM | 15.6 µM and 31.9 µM | 9.43 | 15.1 µM and 27.1 µM | 10.8 | 18.8 µM and 22.7 µM | 11.1 µM | 13.6 µM and 28.3 µM |  | 26.6 µM and 42.4 µM | 11.4 µM | 21.3 µM and 28.3 µM | 23.6 µM | 36.3 µM and 96.7 µM |  | 22.1 µM and 20 µM
4 | OC(c1cccc(C(F)(F)F)c1)c1cnccc1NC1CCCCCC1 (stereo not drawn) | 2.77 | 7.53 µM | 1.55 | 3.85 µM | 1.51 µM | 2.94 µM | 2.13 | 5.47 µM | 1.64 | 3.22 µM | 1.7 µM | 3.43 µM | 1.85 | 5.39 µM | 1.62 µM | 3.08 µM | 7 µM | 20 µM | 1.83 | 3.43 µM
5 | COc1cc2c(c(O)c1C)C(=O)C(Cl)=CC2=O |  | 13.3 µM |  | 11.6 µM |  | 12.5 µM |  | 18.4 µM |  | 27.8 µM |  | 40.2 µM |  | 25 µM |  | 28.2 µM |  | > 65.6 µM |  | 47.3 µM
6 | Fc1ccc(-c2nn(-c3ccccc3)cc2-c2nc3ccccc3o2)cc1 | 5.65 | 19.4 µM | 3.13 | > 100 µM | 1.71 µM | 5.99 µM | 2.97 | 21.4 µM | 8.47 | 67.3 µM | 3.94 µM | 39.3 µM | 2.26 | 11.7 µM | 15 µM | > 100 µM | 8.46 µM | > 100 µM | 1.93 | 16.5 µM
7 | O=C1CCC(NC(=O)c2ccccc2)C(=O)N1 (stereo not drawn) |  | > 100 µM |  | > 100 µM |  | > 100 µM |  | > 100 µM |  | > 100 µM |  | > 100 µM |  | > 100 µM |  | > 100 µM |  | > 100 µM |  | > 100 µM
8 | O=C(O)CCCc1ccc(N(CCCl)CCCl)cc1 | 41.7 | 590 µM and 191 µM | 5.86 | 28.1 µM and 146 µM and 247 µM | 10.3 µM and 97.8 µM | 26.3 µM and 188 µM and 141 µM |  | 290 µM and 289 µM | 265 | 334 µM and 606 µM | 30.5 µM and 158 µM | 65.3 µM and 352 µM and 321 µM |  |  | 7.67 µM and 35.7 µM | 28.4 µM and 181 µM and 133 µM | 20.4 µM and 196 µM | 52 µM and 402 µM and 498 µM |  | 29.9 µM and 219 µM and 251 µM
9 | CN1CCN(Cc2ccc(NC(=O)c3cncc(C#Cc4cnc(N)c5ccccc45)c3)cc2C(F)(F)F)CC1 | 0.213 | 0.678 µM | 0.271 | 0.7 µM | 0.315 µM | 0.774 µM | 1.57 | 5.8 µM | 0.369 | 0.82 µM | 0.127 µM | 0.615 µM | 0.41 | 0.963 µM | 0.423 µM | 0.89 µM | 0.199 µM | 0.638 µM | 0.279 | 0.763 µM
10 | CN(C)c1ccc(/C=C2\C[N+](C)(C)C/C(=C\c3ccc(N(C)C)cc3)C2=O)cc1 |  | > 100 µM |  | > 100 µM |  | 46.4 µM |  | 34.3 µM |  | 36.7 µM |  | 18 µM |  | 54.4 µM |  | 85.3 µM |  | 73.1 µM |  | 25 µM
11 | CCCCCCCCCCCCOC1C(CNCC2OC3OC(C)(C)OC3C2NC(=O)Nc2ccc(C(=O)OCC)cc2)OC2OC(C)(C)OC21 (stereo not drawn) | 1.89 | 3.73 µM | 6.74 | 19.8 µM | 8.99 µM | 29.1 µM | 5.44 | 19.8 µM | 1.77 | 3.33 µM | 2.7 µM | 7.37 µM | 8.34 | 21.5 µM | 3.29 µM | 11.5 µM | 10.4 µM | 23.3 µM | 1.94 | 3.71 µM
12 | COC(=O)c1c2c(c(C)[n+]([O-])c1C)C(=O)C=CC2=O | 1.82 | 3.22 µM | 1.95 | 4.2 µM | 1.53 µM | 2.92 µM | 1.72 | 3.14 µM | 2.68 | 8.28 µM | 1.74 µM | 4.25 µM | 1.63 | 4.27 µM | 2.06 µM | 4.51 µM | 2.26 µM | 5.38 µM | 1.48 | 2.83 µM
13 | S=C1NCCN1C1=Nc2ccccc2CO1 | > 100 | > 100 µM | > 100 | > 100 µM | > 100 µM | > 100 µM | > 100 | > 100 µM | > 100 | > 100 µM | 74 µM | > 100 µM | > 100 | > 100 µM | > 100 µM | > 100 µM | > 100 µM | > 100 µM | > 100 | > 100 µM
14 | COc1cccc(-c2nn(-c3ccccc3)cc2-c2ccnc(NCCCNS(=O)(=O)c3cccc(F)c3)c2)c1 | 6.33 | > 100 µM | 6.16 | > 100 µM | 5.16 µM | > 100 µM | 2.76 | > 100 µM | 3.43 | > 100 µM | 4.96 µM | > 100 µM | 4.47 | > 100 µM | 4.01 µM | > 100 µM | 3.18 µM | > 100 µM | 4.83 | > 100 µM
15 | CCOc1ccc2nc(NC(=O)/C(CC(=O)CC(C3=C(O)c4ccccc4CC3=O)c3ccccc3)=N\O)sc2c1 (stereo not drawn) |  | > 100 µM |  | > 100 µM |  | > 100 µM |  | > 100 µM |  | > 100 µM |  | > 100 µM |  | > 100 µM |  | > 100 µM |  | > 100 µM |  | > 100 µM
